Laboratory results: ChEMBL document CHEMBL2057064, “Activation of human RNase L by 2'- and 5'-O-methylphosphonate-modified oligoadenylates” (Bioorg Med Chem Lett, 2012)
Calls of active or inactive are those of the source. No cut-off for these calls is given here.

Assays:
[1] = target: T1, 2-5A-dependent ribonuclease (Homo sapiens) (UniProt Q05823); experiment: (§1) Activation of human RNase L expressed in Escherichia coli BL21 (DE3) cells assessed as RNA cleavage using Cy5-rC11-UU-C7-BHQ2 as substrate by FRET assay
T1 sequence (whole entry): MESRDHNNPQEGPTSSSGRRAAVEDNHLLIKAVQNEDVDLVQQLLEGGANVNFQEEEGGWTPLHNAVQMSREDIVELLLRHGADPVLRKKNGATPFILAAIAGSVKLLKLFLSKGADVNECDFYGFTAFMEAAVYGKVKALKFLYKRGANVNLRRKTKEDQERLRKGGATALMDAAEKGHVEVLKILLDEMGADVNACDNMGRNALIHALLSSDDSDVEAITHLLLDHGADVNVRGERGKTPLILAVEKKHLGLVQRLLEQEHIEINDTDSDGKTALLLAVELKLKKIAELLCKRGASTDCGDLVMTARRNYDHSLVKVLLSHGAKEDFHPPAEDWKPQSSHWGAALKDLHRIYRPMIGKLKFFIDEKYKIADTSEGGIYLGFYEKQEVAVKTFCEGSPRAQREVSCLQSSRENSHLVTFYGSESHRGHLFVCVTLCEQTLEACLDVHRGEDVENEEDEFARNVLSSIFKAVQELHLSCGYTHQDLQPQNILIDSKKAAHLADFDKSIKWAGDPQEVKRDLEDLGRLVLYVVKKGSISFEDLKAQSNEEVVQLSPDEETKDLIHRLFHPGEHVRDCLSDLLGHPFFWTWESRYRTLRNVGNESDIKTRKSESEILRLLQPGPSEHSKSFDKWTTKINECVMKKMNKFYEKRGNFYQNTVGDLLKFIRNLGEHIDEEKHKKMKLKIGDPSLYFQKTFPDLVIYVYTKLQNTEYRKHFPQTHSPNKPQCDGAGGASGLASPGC

[2] = target: T2, 2-5A-dependent ribonuclease (Homo sapiens, UniProt Q05823); experiment: as §1
T2 sequence (Q05823 whole entry): T1 sequence (whole entry)

With `Nc1ncnc2c1ncn2[C@@H]1O[C@H](COP(=O)(O)O[C@@H]2[C@@H](O)[C@@H](COCP(=O)(O)O[C@@H]3[C@H](O)[C@@H](COP(=O)(O)O[C@@H]4[C@H](O)[C@@H](COP(=O)(O)O)O[C@H]4n4cnc5c(N)ncnc54)O[C@H]3n3cnc4c(N)ncnc43)O[C@H]2n2cnc3c(N)ncnc32)[C@@H](O)[C@H]1O` the Activity [1] was “Active” and the EC50 [2] was 1000 nM.
In the case of `Nc1ncnc2c1ncn2[C@@H]1O[C@H](COCP(=O)(O)O[C@@H]2[C@H](O)[C@@H](COP(=O)(O)O[C@@H]3[C@H](O)[C@@H](COP(=O)(O)O[C@@H]4[C@H](O)[C@@H](COP(=O)(O)O)O[C@H]4n4cnc5c(N)ncnc54)O[C@H]3n3cnc4c(N)ncnc43)O[C@H]2n2cnc3c(N)ncnc32)[C@@H](O)[C@H]1O`, the Activity [1] is reported as “Active” and the EC50 [2] is reported as 15 nM.
An EC50 [2] of 53 nM was found for `Nc1ncnc2c1ncn2[C@@H]1O[C@H](COP(=O)(O)O[C@@H]2[C@H](O)[C@@H](COP(=O)(O)O[C@@H]3[C@H](O)[C@@H](COP(=O)(O)O[C@@H]4[C@H](O)[C@@H](COCP(=O)(O)O)O[C@H]4n4cnc5c(N)ncnc54)O[C@H]3n3cnc4c(N)ncnc43)O[C@H]2n2cnc3c(N)ncnc32)[C@@H](O)[C@H]1O` in this work.
An EC50 [2] of 17 nM was found for `Nc1ncnc2c1ncn2[C@@H]1O[C@H](COP(=O)(O)O[C@@H]2[C@H](O)[C@@H](COP(=O)(O)O[C@@H]3[C@H](O)[C@@H](COP(=O)(O)O[C@@H]4[C@H](O)[C@@H](COP(=O)(O)O)O[C@H]4n4cnc5c(N)ncnc54)O[C@H]3n3cnc4c(N)ncnc43)O[C@H]2n2cnc3c(N)ncnc32)[C@@H](O)[C@H]1O` in this work.
For `Nc1ncnc2c1ncn2[C@@H]1O[C@H](COP(=O)(O)O[C@@H]2[C@H](O)[C@@H](COP(=O)(O)CO[C@H]3[C@H](O)[C@@H](COP(=O)(O)O[C@@H]4[C@H](O)[C@@H](COP(=O)(O)O)O[C@H]4n4cnc5c(N)ncnc54)O[C@H]3n3cnc4c(N)ncnc43)O[C@H]2n2cnc3c(N)ncnc32)[C@@H](O)[C@H]1O`, the EC50 [2] was > 1000 nM.
With `Nc1ncnc2c1ncn2[C@@H]1O[C@H](COP(=O)(O)O[C@H]2[C@H](O)[C@@H](COCP(=O)(O)O[C@@H]3[C@H](O)[C@@H](COP(=O)(O)O[C@@H]4[C@H](O)[C@@H](COP(=O)(O)O)O[C@H]4n4cnc5c(N)ncnc54)O[C@H]3n3cnc4c(N)ncnc43)O[C@H]2n2cnc3c(N)ncnc32)[C@@H](O)[C@H]1O` the EC50 [2] was > 1000 nM.
For `Nc1ncnc2c1ncn2[C@@H]1O[C@H](COP(=O)(O)O[C@@H]2[C@H](O)[C@@H](COP(=O)(O)CO[C@@H]3[C@H](O)[C@@H](COP(=O)(O)O[C@@H]4[C@H](O)[C@@H](COP(=O)(O)O)O[C@H]4n4cnc5c(N)ncnc54)O[C@H]3n3cnc4c(N)ncnc43)O[C@H]2n2cnc3c(N)ncnc32)[C@@H](O)[C@H]1O`, the EC50 [2] was > 1000 nM.
With `Nc1ncnc2c1ncn2[C@@H]1O[C@H](COP(=O)(O)O[C@@H]2[C@H](O)[C@@H](COP(=O)(O)O[C@@H]3[C@H](O)[C@@H](COP(=O)(O)CO[C@H]4[C@H](O)[C@@H](COP(=O)(O)O)O[C@H]4n4cnc5c(N)ncnc54)O[C@H]3n3cnc4c(N)ncnc43)O[C@H]2n2cnc3c(N)ncnc32)[C@@H](O)[C@H]1O` the EC50 [2] was > 1000 nM.
With `Nc1ncnc2c1ncn2[C@@H]1O[C@H](COP(=O)(O)CO[C@@H]2[C@@H](O)[C@@H](COP(=O)(O)O[C@@H]3[C@H](O)[C@@H](COP(=O)(O)O[C@@H]4[C@H](O)[C@@H](COP(=O)(O)O)O[C@H]4n4cnc5c(N)ncnc54)O[C@H]3n3cnc4c(N)ncnc43)O[C@H]2n2cnc3c(N)ncnc32)[C@@H](O)[C@H]1O` the EC50 [2] was > 1000 nM.
With `Nc1ncnc2c1ncn2[C@@H]1O[C@H](COP(=O)(O)O[C@@H]2[C@H](O)[C@@H](COP(=O)(O)O[C@H]3[C@H](O)[C@@H](COCP(=O)(O)O[C@@H]4[C@H](O)[C@@H](COP(=O)(O)O)O[C@H]4n4cnc5c(N)ncnc54)O[C@H]3n3cnc4c(N)ncnc43)O[C@H]2n2cnc3c(N)ncnc32)[C@@H](O)[C@H]1O` the EC50 [2] was > 1000 nM.
